Experimental data as given in PMC3242765, “Inhibitors of Alphavirus Entry and Replication Identified with a Stable Chikungunya Replicon Cell Line and Virus-Based Assays” (PLoS ONE, 2011).
Where a name gives a salt, the structure may show the parent alone.

Columns and labels:
CHIKV replicon = experiment: microbe, parasite or virus in culture; assay type: cell-based, Chikungunya virus (CHIKV)

SMILES	CHIKV replicon % left (CHIKV replicon)	SFV replication % left (surviving fraction, remaining percentage of SFV replication) (SFV-Rluc)
O=c1c(O)c(-c2ccc(O)cc2)oc2cc(O)cc(O)c12 [Kaempferol]	11.5%	2.9%
COc1c2occc2c(OC)c2c(=O)cc(C)oc12 [Khellin]	95.4%	120.6%
C[C@](N)(Cc1ccc(O)c(O)c1)C(=O)O [L-Methyldopa]	70.2%	99.1%
CNC[C@H](O)c1cccc(O)c1.Cl [L-Phenylephrine hydrochloride]	104.1%	85.1%
O=C1O[C@H]([C@@H](O)CO)C(O)=C1O [L-ascorbic acid]	106.1%	81.4%
CC(CCc1ccccc1)NCC(O)c1ccc(O)c(C(N)=O)c1 (stereo not drawn) [Labetalol hydrochloride]	100.1%	72.5%
CCCCCCCCCCCCOC(=O)c1cc(O)c(O)c(O)c1 [Lauryl gallate]	6.1%	12.3%
Oc1cc(O)c2c(c1)OC(c1ccc(O)c(O)c1)C(O)C2O (stereo not drawn) [Leucocyanidin]	84.1%	136.3%
O=C1Nc2ccc(Cl)cc2C(c2ccccc2Cl)=NC1O (stereo not drawn) [Lorazepam]	104.9%	98.2%
O=c1cc(-c2ccc(O)c(O)c2)oc2cc(O[C@@H]3O[C@H](CO)[C@@H](O)[C@H](O)[C@H]3O)cc(O)c12 [Luteolin-7-glucoside]	54.4%	17.8%
O=c1cc(-c2ccc(O)c(O)c2)oc2cc(O)cc(O)c12 [Luteolin]	95.0%	71.3%
COc1cc(-c2[o+]c3cc(O)cc(O[C@@H]4O[C@H](CO)[C@@H](O)[C@H](O)[C@H]4O)c3cc2O[C@@H]2O[C@H](CO)[C@@H](O)[C@H](O)[C@H]2O)cc(OC)c1O.[Cl-] [Malvin chloride]	72.3%	15.4%
CN1CCN=C(c2ccccc2)c2cc(Cl)ccc21 [Medazepam]	101.7%	87.5%
Cc1cccc(Nc2ccccc2C(=O)O)c1C [Mefenamic acid]	99.4%	103.5%
CC1=CC(=O)c2ccccc2C1=O [Menadione [2-Methyl-1,4-naphtoquinone]]	31.1%	28.3%
CNC(C)(C)Cc1ccccc1 [Mephentermine sulfate]	70.1%	81.8%
Cc1cccc(C)c1NC(=O)C1CCCCN1C (stereo not drawn) [Mepivacaine hydrochloride]	62.2%	74.9%
CN1CCCCC1CCN1c2ccccc2Sc2ccc([S+](C)[O-])cc21 (stereo not drawn) [Mesoridazine besylate]	100.5%	93.8%
Cc1c(N(C)CS(=O)(=O)[O-])c(=O)n(-c2ccccc2)n1C.[Na+] [Metamizol sodium]	105.1%	86.0%
C[C@H](N)[C@H](O)c1cccc(O)c1.O=C(O)C(O)C(O)C(=O)O [Metaraminol bitartrate salt]	69.1%	96.5%
COc1ccc(OC)c(C(O)C(C)N)c1 (stereo not drawn) [Methoxamine hydrochloride]	48.2%	98.4%
COC(=O)c1cc(O)c(O)c(O)c1 [Methyl gallate]	100.7%	67.8%
COC(=O)c1ccc(O)cc1 [Methyl p-hydroxybenzoate]	100.4%	69.3%
C[N+]1(C)[C@@H]2CC[C@H]1C[C@@H](OC(=O)C(CO)c1ccccc1)C2 (stereo partly drawn) [Methylatropine bromide]	54.9%	70.9%
Cc1cc(=O)oc2cc(O)ccc12 [Methylumbelliferone]	21.1%	12.0%
CC(=O)Oc1c(C)cc(OCC(O)CNC(C)C)c(C)c1C (stereo not drawn) [Metipranolol]	100.5%	46.2%
COCCc1ccc(OCC(O)CNC(C)C)cc1 (stereo not drawn) [Metoprolol tartrate]	78.2%	65.7%

SMILES	CHIKV replicon % left (CHIKV replicon)	SFV replication % left (surviving fraction, remaining percentage of SFV replication) (SFV-Rluc)
Cc1ncc([N+](=O)[O-])n1CCO [Metronidazole]	89.2%	69.2%
O.O.O=c1c(O)c(-c2ccc(O)cc2O)oc2cc(O)cc(O)c12 [Morin dihydrate]	102.6%	82.9%
O=c1c(O)c(-c2cc(O)c(O)c(O)c2)oc2cc(O)cc(O)c12 [Myricetin]	49.1%	2.0%
CC(=O)Nc1ccc(S(N)(=O)=O)cc1 [N-Acetylsulfanilamide]	104.1%	63.2%
CC(CN1c2ccccc2Sc2ccccc21)[N+](C)(C)CCO (stereo not drawn) [N-Hydroxyethylpromethazine chloride]	85.9%	102.2%
Cc1ccc(C(=O)NS(=O)(=O)c2ccc(N)cc2)cc1C [N-Sulfanilyl-3,4-xylamide]	100.7%	72.0%
CC(C)(C)NCC(O)COc1cccc2c1CC(O)C(O)C2 (stereo not drawn) [Nadolol]	63.3%	60.5%
CCn1cc(C(=O)O)c(=O)c2ccc(C)nc21 [Nalidixic acid]	100.4%	80.4%
COc1ccc2cc([C@H](C)C(=O)O)ccc2c1 [Naproxen]	89.2%	92.7%
COc1ccc(C(=O)Cc2c(CCN(C)C)cc3c(c2OC)OCO3)c(C(=O)O)c1OC [Narceine]	70.7%	118.3%
NC[C@@H]1O[C@H](O[C@H]2[C@@H](O)[C@H](O[C@@H]3[C@@H](O)[C@H](N)C[C@H](N)[C@H]3O[C@H]3O[C@H](CN)[C@@H](O)[C@H](O)[C@H]3N)O[C@@H]2CO)[C@H](N)[C@@H](O)[C@@H]1O.O=S(=O)(O)O [Neomycin sulfate]	100.4%	99.6%
NC(=O)c1cccnc1 [Nicotinamide]	99.1%	116.9%
O=C1CN=C(c2ccccc2)c2cc([N+](=O)[O-])ccc2N1 [Nitrazepam]	98.8%	46.0%
O=C1CN(/N=C/c2ccc([N+](=O)[O-])o2)C(=O)N1 [Nitrofurantoin]	60.9%	58.9%
NC(=O)N/N=C/c1ccc([N+](=O)[O-])o1 [Nitrofurazone]	102.1%	83.7%
CC(N)C(O)c1ccc(O)c(O)c1 (stereo not drawn) [Nordefrin hydrochloride]	104.2%	118.0%
CC(Cc1ccc(O)c(O)c1)C(C)Cc1ccc(O)c(O)c1 (stereo not drawn) [Nordihydroguaiaretic acid]	28.3%	35.6%
C#C[C@]1(O)CC[C@H]2[C@@H]3CCC4=CC(=O)CC[C@@H]4[C@H]3CC[C@@]21C [Norethindrone]	97.1%	107.8%
NCC(O)c1cccc(O)c1 (stereo not drawn) [Norfenefrine]	96.6%	126.3%
CNCCC=C1c2ccccc2CCc2ccccc21 [Nortriptyline hydrochloride]	29.1%	5.3%
COc1ccc2c(c1OC)C(=O)O[C@@H]2[C@H]1c2c(cc3c(c2OC)OCO3)CCN1C [Noscapine]	78.4%	103.5%
NCC(O)c1ccc(O)cc1 (stereo not drawn) [Octopamine hydrochloride]	88.4%	102.1%
CCCCCCCCOC(=O)c1cc(O)c(O)c(O)c1 [Octyl gallate]	94.1%	134.4%
C[C@@H]1O[C@@H](O[C@H]2C[C@@H](O)[C@]3(CO)[C@H]4[C@H](O)C[C@]5(C)[C@@H](C6=CC(=O)OC6)CC[C@]5(O)[C@@H]4CC[C@]3(O)C2)[C@H](O)[C@H](O)[C@H]1O [Ouabain]	89.2%	90.9%
O=C1Nc2ccc(Cl)cc2C(c2ccccc2)=NC1O (stereo not drawn) [Oxazepam]	80.3%	79.1%
C=CCOc1ccccc1OCC(O)CNC(C)C (stereo not drawn) [Oxprenolol hydrochloride]	84.3%	92.4%
CCCCC1C(=O)N(c2ccccc2)N(c2ccc(O)cc2)C1=O (stereo not drawn) [Oxyphenbutazone]	100.4%	84.8%
